What was measured:
[1] = people taking Reductil, background statement; cited from earlier work
high-fat diet-fed mice = test: Anti-obesity effect by repeated administration for 8 weeks in obesity model induced by high-fat diet; assay type: in vivo, C57BL/6 mice; conditions: HFD mice
Method: 6-week-old male C57BL/6 mice (Orient Bio) were used after being acclimated for one week. A high-fat diet was fed to induce obesity. D12451 (Calorie composition: 45% of fats, 35% of carbohydrates, and 20% of proteins, Research Diets, Inc.) was used as the high-fat diet, and Purina Rodent Chow was used as a normal diet. The mice were allowed to freely access feed and drinking water. The CMO1 mixture was administered together with the […] feed at a weight ratio of 0.1% (w/w) and 0.25% (w/w). Xenical™ (orlistat, Sigma, MO, USA), as a control drug, was administered together with the […] feed in a weight ratio of 0.1% (w/w). A daily dose of the CMO1 mixture, calculated based on an average daily feed intake, was 70 mg/kg/day in the case of 0.1%, and 190 mg/kg/day in the case of 0.25%, and a daily dose of Xenical™ was […]. Body weights and feed intakes were measured every week, and organs were excised and weighed in autopsy after 8 weeks and then stored at −80° C. In autopsy, blood was collected from the abdominal vein after laparotomy under deep anesthesia. The blood was stored in a cryogenic refrigerator according to analysis conditions and thawed immediately before initiating the experiment. Levels of total cholesterol, triglyceride, HDL cholesterol, and LDL cholesterol were analyzed using an automatic blood biochemistry analyzer (Hitachi, Japan). In order to analyze size changes in adipocytes and hepatocytes caused by accumulation of fats, the organ was immobilized with 10% neutralized formalin (Microme, USA) for 24 hours, embedded into paraffin blocks via a general tissue treatment process, and sectioned into 4 μm slices. The slices were hydrated and stained with hematoxylin and eosin (H&E). The stained tissue was observed using an optical microscope (BX51, Olympus, Japan) to measure sizes of cells. […] All measurement values of each experiment are expressed as mean±standard error. […]

pancreatic lipase = biological target: T1, pancreatic lipase (Homo sapiens, UniProt P16233); conditions: background statement; cited from earlier work
T1 sequence (P16233 17-465): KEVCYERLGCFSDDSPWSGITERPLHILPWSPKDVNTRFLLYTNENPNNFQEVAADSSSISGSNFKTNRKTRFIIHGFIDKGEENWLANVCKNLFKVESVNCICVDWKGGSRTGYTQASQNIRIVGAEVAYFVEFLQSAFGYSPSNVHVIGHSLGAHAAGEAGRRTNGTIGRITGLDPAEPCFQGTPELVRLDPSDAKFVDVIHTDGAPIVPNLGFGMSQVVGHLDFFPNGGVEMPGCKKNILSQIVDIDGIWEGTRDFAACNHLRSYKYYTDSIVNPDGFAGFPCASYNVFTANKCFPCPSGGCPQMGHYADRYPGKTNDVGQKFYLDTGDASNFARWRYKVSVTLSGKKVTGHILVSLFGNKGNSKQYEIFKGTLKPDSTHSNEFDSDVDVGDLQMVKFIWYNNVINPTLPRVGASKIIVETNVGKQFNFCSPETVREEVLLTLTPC

[2] = during 8-week administration in feed

## CC(C)CC(N(C)C)C1(c2ccc(Cl)cc2)CCC1 (centres unmarked) [Reductil, Sibutramine]
[1]
  higher number of cardiovascular events versus a control group: 16%

## CCCCCCCCCCC[C@@H](C[C@@H]1OC(=O)[C@H]1CCCCCC)OC(=O)[C@H](CC(C)C)NC=O [Xenical, Orlistat]
high-fat diet-fed mice; 8-week administration in feed
  hardness of excrement: very soft excrement
high-fat diet-fed mice; [2]
  appearance of hair during administration: oily and lumpy hair
  diarrhea (side effect): serious diarrhea
Pancreatic lipase
  inhibition of absorption of dietary fat: approximately 30%

Source: patent US11484562B2, “Composition for preventing or treating obesity comprising natural mixture extracts” (KOREA INSTITUTE OF ORIENTAL MEDICINE, priority 2018, dated 2022)
